Where two headings read alike, the source gives them in different places.
Tests used:
[1] = test system: L. infantum amastigote forms; assay: In vitro activity against amastigote forms in J774.2 macrophages; format: cell-based; details: for Selectivity Index Amastigote Forms: J774.2 Macrophage IC50/Parasite IC50; for IC50: in J774.2 macrophages, means of three separate experiments, read-out: Compound IC50 Amastigote Forms
Protocol: (§1) A similar method was used for the amastigote assay. First, J774.2 macrophages were harvested in 24-well microplates with round coverslips at the bottom, where cells will attach. Once cells are fixated, they are infected with promastigotes (10 per each macrophage cell) and compounds were added to reach the same final concentrations as in the previous experiment. After one day, promastigotes transform into amastigotes and microplates are maintained for two days at 37 °C. Once that time is elapsed, coverslips are collected and fixated to a microscope slide and dyed with Giemsa. Amastigotes are then counted using a microscope from a total of 200 random macrophages.

[2] = test system: L. braziliensis amastigote forms; assay: as above; format: cell-based; details: for Selectivity Index Amastigote Forms: J774.2 Macrophage IC50/Parasite IC50; for IC50: in J774.2 macrophages, means of three separate experiments, read-out: Compound IC50 Amastigote Forms
Protocol: as §1

[3] = test system: J774.2 macrophage cell line; assay: Macrophage cytotoxicity; format: cell-based; details: J774.2 macrophages, means of three separate experiments, read-out: Macrophage Toxicity IC50
Source text: Macrophages are cells naturally infected by Leishmania parasites. For that reason, they were used as host cell models, specifically the J774.2 macrophage cell line [European Collection of Authenticated Cell Cultures (ECACC) number 91051511]. Cells were used to test the cytotoxicity of the new compound (establishing IC50 via testing different drug concentrations on cells) and they were used for parasite infectivity assays.

[4] = test system: L. infantum; assay: Metabolite excretion (1H-NMR of supernatants); format: cell-based; details: IC25, 72 h, vs untreated
Source text: (§2) Active compounds can trigger metabolic alterations within parasite mitochondria. Those alterations can be proven by observing alterations in the excreted metabolites quantity. Trypanosomatids excrete different metabolites to the medium in order to get rid of the carbonate skeleton instead of oxidizing glucose to CO2 and water as vertebrates do. Each metabolite is produced in a certain area of the mitochondrion and by a certain enzyme, thus, it can be inferred that these particular zones or enzymes are being affected by drug action. For this experiment, cultures of each species with an initial concentration of 5 × 10^5 cells/mL were stored at 27 °C for 72 h with IC25 as the test dosage. After this time elapsed, cultures were centrifuged at 400× g for 10 min and supernatants were collected and examined by ^1H-NMR.

[5] = test system: L. braziliensis; assay: Metabolite excretion (1H-NMR of supernatants); format: cell-based; details: IC25, 72 h, vs untreated
Source text: as §2

[6] = test system: L. braziliensis; assay: Infectivity assay in J774.2 macrophages; format: cell-based; details: test dosage IC25, 10 days
Source text: Following a similar method as the described one in the amastigote experiment, macrophages were harvested and infected with promastigotes in their stationary phase. The test dosage was IC25 for this experiment. The coverslips were collected every 2 days for 10 days and counted in order to determine if drugs affected promastigote infection and amastigote division within the cells by measuring the infection rate (percentage of infected cells) and amastigote number per infected cell.

[7] = test system: L. donovani promastigote forms; assay: In vitro activity against promastigote forms; format: cell-based; details: for Selectivity Index Promastigote Forms: J774.2 Macrophage IC50/Parasite IC50; for IC50: 48 h, 27 °C, means of three separated experiments, read-out: Compound IC50 Promastigote Forms
Protocol: (§3) Three Leishmania species were studied, each one as a pathogenic agent for each clinical form: L. donovani for VL, L. infantum for CL, and L. braziliensis for ML.
(§4) In order to perform this experiment, promastigotes were harvested in 24-well microplates and different drug concentrations were added in order to reach 12.5, 25, 50, and 100 µM and maintained at 27 °C for 48 h. They were counted after that time was elapsed in a Neubauer haemocytrometric chamber.

[8] = test system: L. braziliensis promastigote forms; assay: In vitro activity against promastigote forms; format: cell-based; details: for Selectivity Index Promastigote Forms: J774.2 Macrophage IC50/Parasite IC50; for IC50: 48 h, 27 °C, means of three separate experiments, read-out: Compound IC50 Promastigote Forms
Protocol: as §3, §4

[9] = test system: L. infantum promastigote forms; assay: In vitro activity against promastigote forms; format: cell-based; details: for Selectivity Index Promastigote Forms: J774.2 Macrophage IC50/Parasite IC50; for IC50: 48 h, 27 °C, means of three separate experiments, read-out: Compound IC50 Promastigote Forms
Protocol: as §3, §4

[10] = test system: L. donovani amastigote forms; assay: In vitro activity against amastigote forms in J774.2 macrophages; format: cell-based; details: for Selectivity Index Amastigote Forms: J774.2 Macrophage IC50/Parasite IC50; for IC50: in J774.2 macrophages, means of three separated experiments, read-out: Compound IC50 Amastigote Forms
Protocol: as §1

[11] = test system: L. donovani; assay: Metabolite excretion (1H-NMR of supernatants); format: cell-based; details: IC25, 72 h, vs untreated
Source text: as §2

[12] = test system: L. infantum Fe-SOD; assay: SOD inhibition assay (Beyer and Fridovich method); format: biochemical; details: L. infantum excreted Fe-SOD
Source text: Superoxide dismutase (SOD) is a key enzyme for cell survival against oxidative stress. Host cells induce oxidative bursts to create reactive oxygen species (ROS) within parasite cells that are toxic to them. For that reason, Leishmania cells rely on SOD to counteract this defense. While vertebrate SOD is linked to a copper, zinc (Cu/Zn-SOD), or manganese atom (Mn-SOD), trypanosomatid SOD is linked to an iron atom (Fe-SOD). This difference makes SOD a perfect target for drugs: if they are able to reduce its activity, cell survival will be compromised. For testing, if drugs are able to reduce this enzymatic activity, promastigotes are largely harvested and then stressed in the same culture medium without calf serum, in order to trigger stress and make them excrete SOD. This SOD is collected and semi-purified by a method described in Martín-Montes et al. 2017 [10]. Excreted Fe-SOD was mixed with the different reagents of the Beyer and Fridovich method and measured in a UV spectrophotometer twice. The second measurement took place after 10 min under direct light and constant stirring. Commercial human SOD (Cu/Zn-SOD) (Sigma®, St. Louis, MO, USA) activity was also measured for comparison.

Compound | IC50 ([7]; Leishmania donovani) [µM] | IC50 ([8]; Leishmania braziliensis) [µM] | IC50 ([9]; Leishmania infantum) [µM] | IC50 ([3]; Mus musculus) [µM] | Selectivity Index Promastigote Forms [7] | Selectivity Index Promastigote Forms [8] | Selectivity Index Promastigote Forms [9] | further results
c1c2n[nH]c1CNCCNCCCNCCNC2 [PZ232] | 25 ± 0.8 | 5.8 ± 0.2 | 13 ± 0.4 | 674 ± 66.3 | 27 | 116 | 52 | Selectivity Index Amastigote Forms [1]: 138; IC50 ([1]; Leishmania infantum): 4.9 ± 0.4 µM; Selectivity Index Amastigote Forms [2]: 421; IC50 ([2]; Leishmania braziliensis): 1.6 ± 0.6 µM; Acetate production and excretion variation [4]: -11.80%; D-lactate production and excretion variation [4]: -11.58%; L-alanine production and excretion variation [4]: -13.15%; Pyruvate production and excretion variation [4]: -14.03%; Succinate production and excretion variation [4]: -16.36%; Acetate production and excretion variation [5]: -38.64%; D-lactate production and excretion variation [5]: -38.98%; L-alanine production and excretion variation [5]: -37.91%; Pyruvate production and excretion variation [5]: -35.69%; Succinate production and excretion variation [5]: -37.83%; Amastigote number/infected cell, percentage in plot key (reduction vs control) [6]: 32.4%
c1c2n[nH]c1CNCCCNCCCNCCCNC2 [PZ333] | 1.4 ± 0.3 | 15.7 ± 0.5 | 70 ± 0.7 | 985 ± 72.8 | 704 | 63 | 14 | Selectivity Index Amastigote Forms [10]: 579; IC50 ([10]; Leishmania donovani): 1.7 ± 0.5 µM; Acetate production and excretion variation [11]: 33.66%; D-lactate production and excretion variation [11]: 29.85%; L-alanine production and excretion variation [11]: 32.65%; Pyruvate production and excretion variation [11]: 37.88%; Succinate production and excretion variation [11]: 42.10%
c1cc2nc(c1)CNCCCNCCCCNC2 [Py34] | 28.4 ± 0.6 | 29.2 ± 0.8 | 56.7 ± 2.6 | 569 ± 45.8 | 20 | 19 | 10 | –
c1cc2nc(c1)CNCCCNCCCNCCCNC2 [Py333] | 0.2 | 26.2 ± 1.1 | 30.4 ± 1.4 | 310 ± 43.8 | 1549 | 12 | 10 | Selectivity Index Amastigote Forms [10]: 18; IC50 ([10]; Leishmania donovani): 16.8 ± 0.5 µM
c1cc2nc(c1)CNCCCNCCNCCNCCCNC2 [Py3223] | 52.5 ± 2.1 | 291 ± 3.8 | 192 ± 5.8 | 165 ± 4.9 | 3 | 1 | 1 | –
c1cc2ccc1CNCCNCCCNCCNC2 [pB232] | 743 ± 23.6 | 27.2 ± 0.9 | 367 ± 10.5 | 719 ± 20.5 | 1 | 26 | 2 | –
Glucantime [reference compound] | – | – | – | – | 7 | 3 | 3.5 | Selectivity Index Amastigote Forms [1]: 2; IC50 [1]: 84.6 ± 4.3 µM; Selectivity Index Amastigote Forms [2]: 1.7; IC50 [2]: 103 µM; Selectivity Index Amastigote Forms [10]: 2; IC50 [10]: 76.4 ± 4.1 µM; IC50 [3]: 176 ± 10.6 µM; IC50 [7]: 23.7 ± 0.8 µM; IC50 [8]: 51.4 ± 2.5 µM; IC50 [9]: 50.1 ± 2.3 µM

Second part, led by results:

IC50 ([7]; Leishmania donovani) [µM] | IC50 ([8]; Leishmania braziliensis) [µM] | IC50 ([9]; Leishmania infantum) [µM] | Compound | IC50 ([3]; Mus musculus) [µM] | Selectivity Index Promastigote Forms [7] | Selectivity Index Promastigote Forms [8] | Selectivity Index Promastigote Forms [9] | further results
1000 ± 78.4 | 442 ± 5.8 | 93.4 ± 3.7 | c1cc2nc(c1)CNCCCNCCNCCNCCNCCCNC2 [Py32223] | 57.7 ± 1.9 | – | – | 1 | –
130 ± 9.5 | 1630 ± 76.4 | 90.6 ± 3.8 | c1cc2nc(c1)CNCCCNCCNCCCNCCNCCCNC2 [Py32323] | 85.4 ± 4.6 | 1 | – | 1 | –
583 ± 6.9 | 507 ± 8.3 | 484 ± 10.7 | c1cc2nc(c1)CNCCCNCCCNCCNCCCNCCCNC2 [Py33233] | 1290 ± 77.5 | 2 | 3 | 3 | –
70.5 ± 5.2 | 36.5 ± 1.1 | 8.51 ± 0.6 | c1cc2nc(c1)CNCCCNCCCNCCCNCCCNCCCNC2 [Py33333] | 1500 ± 75.3 | 21 | 41 | 176 | Selectivity Index Amastigote Forms [1]: 882; IC50 ([1]; Leishmania infantum): 1.7 ± 0.2 µM; Acetate production and excretion variation [4]: -20.61%; D-lactate production and excretion variation [4]: -19.58%; L-alanine production and excretion variation [4]: -19.83%; Pyruvate production and excretion variation [4]: -22.89%; Succinate production and excretion variation [4]: -20.30%; Fe-SOD activity inhibition (in words) [12]: no inhibition
171 ± 10.4 | 91.7 ± 3.7 | 205 ± 30.7 | c1cc2cc(c1)CNCCNCCCNCCNC2 [mB232] | 667 ± 88.5 | 4 | 7 | 3 | –
158 ± 7.3 | 2.3 ± 0.5 | 95.6 ± 4.8 | c1cc2cc(c1)CNCCCNCCNCCCNC2 [mB323, 3,7,10,14 Tetraaza-1(2,6)-benzenacyclopentadecaphane] | 428 ± 22.6 | 3 | 186 | 4 | Selectivity Index Amastigote Forms [2]: 25; IC50 ([2]; Leishmania braziliensis): 17.1 ± 1.1 µM
106 ± 7.5 | 210 ± 5.3 | 86.1 ± 3.7 | c1cc2cc(c1)CNCCCNCCCNCCCNC2 [mB333, 3,7,11,15 Tetraaza-1(2,6)-benzenacyclohexadecaphane] | 916 ± 51.6 | 9 | 4 | 11 | –
126 ± 3.8 | 15.6 ± 0.7 | 63.4 ± 2.4 | c1cc2cc(c1)CNCCCNCCNCCNCCCNC2 [mB3223] | 1450 ± 89.7 | 11 | 93 | 23 | –

From paper PMC10059905, “The Bioactivity of Xylene, Pyridine, and Pyrazole Aza Macrocycles against Three Representative Leishmania Species” (Pharmaceutics, 2023)
